The results in this text go back to ChEMBL document CHEMBL2177002, “Antifungal spectrum, in vivo efficacy, and structure-activity relationship of ilicicolin h” (ACS Med Chem Lett, 2012).

The subject of assay [1] is Candida albicans. The experiment in a line: Antifungal activity against Candida albicans MY 1055 after 24 hrs by NCCLS broth microdilution method. In kind it is functional. Conditions: for MIC: MY 1055, 24 h. In general terms: Broth dilution looks for growth in wells or tubes with falling amounts of substance.
Assay [2] relates to Meyerozyma guilliermondii. The experiment in a line: Antifungal activity against Candida guilliermondii CLY 308 after 24 hrs by NCCLS broth microdilution method. The format is functional.
The next assay deals with Candida tropicalis. The assay can be described thus: Antifungal activity against Candida tropicalis MY 1012 after 40 hrs by NCCLS broth microdilution method. The format is functional.
A further assay relates to Clavispora lusitaniae. The assay can be described thus: Antifungal activity against Candida lusitaniae MY 1396 after 24 hrs by NCCLS broth microdilution method. The format is functional.
In assay [3] the test system is Candida albicans. The experiment in a line: Antifungal activity against Candida albicans SC 53124 after 24 hrs by NCCLS broth microdilution method. In kind it is functional.
The subject of the next assay is Pichia kudriavzevii. The experiment in a line: Antifungal activity against Candida krusei CLY 549 after 24 hrs by NCCLS broth microdilution method. The format is functional.
Assay [4] relates to Nakaseomyces glabratus. The assay can be described thus: Antifungal activity against Candida glabrata MY 1381 after 24 hrs by NCCLS broth microdilution method. The format is functional.
Assay [5] has as its system Cryptococcus neoformans. The experiment in a line: Antifungal activity against Cryptococcus neoformans MY 2061 after 40 hrs by NCCLS broth microdilution method. The format is functional.
Assay [6] has as its system Cryptococcus neoformans. The experiment in a line: Antifungal activity against Cryptococcus neoformans H 99 after 40 hrs by NCCLS broth microdilution method. In kind it is functional.
The test system of assay [7] is Nakaseomyces glabratus. The experiment in a line: Antifungal activity against Candida glabrata CLY 574 after 24 hrs by NCCLS broth microdilution method. The format is functional.
Assay [8] deals with Candida albicans. The experiment in a line: Antifungal activity against fluconazole-resistant Candida albicans MY 2301 after 24 hrs by NCCLS broth microdilution method. The format is functional.
Assay [9] has as its system Meyerozyma guilliermondii. The assay can be described thus: Antifungal activity against Candida guilliermondii CLY 346 after 24 hrs by NCCLS broth microdilution method. The format is functional.
A further assay relates to Candida parapsilosis. The assay can be described thus: Antifungal activity against Candida parapsilosis ATCC 22019 after 24 hrs by NCCLS broth microdilution method. The format is functional.
The test system of assay [10] is Cytochrome b (Saccharomyces cerevisiae (strain ATCC 204508 / S288c) (Baker's yeast)), P00163 [S20L]. The assay can be described thus: Inhibition of Saccharomyces cerevisiae isolate 1 cytochrome bc1 harboring cytochrome b S20L mutant.
The test system of assay [11] is Cytochrome b (Saccharomyces cerevisiae (strain ATCC 204508 / S288c) (Baker's yeast)), P00163 [L198F]. The assay can be described thus: Inhibition of Saccharomyces cerevisiae isolate 1 cytochrome bc1 complex harboring cytochrome b L198F mutant.
Assay [12] deals with Cytochrome b (Saccharomyces cerevisiae (strain ATCC 204508 / S288c) (Baker's yeast)), P00163 [Q22T]. The assay can be described thus: Inhibition of Saccharomyces cerevisiae isolate 2 cytochrome bc1 complex harboring cytochrome b Q22T mutant.
In assay [13] the test system is Cytochrome b (Candida albicans (strain SC5314 / ATCC MYA-2876) (Yeast)), P0C8L0 [G37C]. The experiment in a line: Inhibition of Candida albicans isolate 3 cytochrome bc1 complex harboring cytochrome b G37C mutant.
Assay [14] deals with Cytochrome b (Saccharomyces cerevisiae (strain ATCC 204508 / S288c) (Baker's yeast)), P00163 [S20T]. The assay can be described thus: Inhibition of Saccharomyces cerevisiae isolate 1 cytochrome bc1 harboring cytochrome b S20T mutant.
Assay [15] deals with Cytochrome b (Saccharomyces cerevisiae (strain ATCC 204508 / S288c) (Baker's yeast)), P00163 [G37S]. The assay can be described thus: Inhibition of Saccharomyces cerevisiae isolate 2 cytochrome bc1 complex harboring cytochrome b G37S mutant.
Assay [16] relates to Cytochrome b (Candida albicans (strain SC5314 / ATCC MYA-2876) (Yeast)), P0C8L0 [Q22E]. The assay can be described thus: Inhibition of Candida albicans isolate 2 cytochrome bc1 complex harboring cytochrome b Q22E mutant.
Assay [17] deals with Cytochrome b (Candida albicans (strain SC5314 / ATCC MYA-2876) (Yeast)), P0C8L0 [S20I]. The experiment in a line: Inhibition of Candida albicans isolate 1 cytochrome bc1 complex harboring cytochrome b S20I mutant.
The test system of assay [18] is Cytochrome b (Candida albicans (strain SC5314 / ATCC MYA-2876) (Yeast)), P0C8L0 [G37D]. The experiment in a line: Inhibition of Candida albicans isolate 4 cytochrome bc1 complex harboring cytochrome b G37D mutant.
The test system of assay [19] is Cytochrome b (Saccharomyces cerevisiae (strain ATCC 204508 / S288c) (Baker's yeast)), P00163 [Q22E]. The assay can be described thus: Inhibition of Saccharomyces cerevisiae isolate 3 cytochrome bc1 complex harboring cytochrome b Q22E mutant.
Assay [20] concerns Cytochrome b (Saccharomyces cerevisiae (strain ATCC 204508 / S288c) (Baker's yeast)), P00163 [G37D]. The experiment in a line: Inhibition of Saccharomyces cerevisiae isolate 2 cytochrome bc1 complex harboring cytochrome b G37D mutant.
The subject of assay [21] is Cytochrome b (Candida albicans (strain SC5314 / ATCC MYA-2876) (Yeast)), P0C8L0 [G37S]. The assay can be described thus: Inhibition of Candida albicans isolate 6 cytochrome bc1 complex harboring cytochrome b G37S mutant.
Assay [22] can be described thus: Inhibition of Candida albicans MY 1055 NADH:cytochrome c oxidoreductase.
A short description of assay [23]: Selectivity ratio of MIC for Candida albicans MY 1055 to IC50 for Candida albicans MY 1055 NADH:cytochrome c oxidoreductase. The format is functional.

Converted amounts (≈) assume the structure as drawn. The source made the active and inactive calls.

What is called MIC is the smallest concentration in the dilution series that meets the test's criterion for growth inhibition. Higher therefore signals a need for much substance. As a reminder, the IC50 is the concentration at which inhibition is half-maximal. Low readings indicate inhibition by little substance, high ones a need for much substance.

Chain of Cytochrome b (Saccharomyces cerevisiae (strain ATCC 204508 / S288c) (Baker's yeast)), P00163 [S20T] (P00163 whole entry S20T): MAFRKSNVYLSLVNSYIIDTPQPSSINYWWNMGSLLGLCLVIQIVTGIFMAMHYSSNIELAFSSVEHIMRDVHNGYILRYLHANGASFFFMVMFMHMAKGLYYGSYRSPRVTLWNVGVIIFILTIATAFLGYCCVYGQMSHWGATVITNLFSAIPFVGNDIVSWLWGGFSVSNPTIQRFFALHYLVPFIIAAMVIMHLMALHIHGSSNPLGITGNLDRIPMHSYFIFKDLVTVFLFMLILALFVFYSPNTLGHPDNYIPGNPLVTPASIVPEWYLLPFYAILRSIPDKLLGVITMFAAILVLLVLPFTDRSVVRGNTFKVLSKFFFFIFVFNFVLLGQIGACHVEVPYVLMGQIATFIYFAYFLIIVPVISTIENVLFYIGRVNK
Chain of Cytochrome b (Saccharomyces cerevisiae (strain ATCC 204508 / S288c) (Baker's yeast)), P00163 [G37D] (P00163 whole entry G37D): as the sequence (P00163 whole entry S20T) above, with T20S, G37D counted along it
Chain of Cytochrome b (Candida albicans (strain SC5314 / ATCC MYA-2876) (Yeast)), P0C8L0 [G37S] (P0C8L0 whole entry G37S): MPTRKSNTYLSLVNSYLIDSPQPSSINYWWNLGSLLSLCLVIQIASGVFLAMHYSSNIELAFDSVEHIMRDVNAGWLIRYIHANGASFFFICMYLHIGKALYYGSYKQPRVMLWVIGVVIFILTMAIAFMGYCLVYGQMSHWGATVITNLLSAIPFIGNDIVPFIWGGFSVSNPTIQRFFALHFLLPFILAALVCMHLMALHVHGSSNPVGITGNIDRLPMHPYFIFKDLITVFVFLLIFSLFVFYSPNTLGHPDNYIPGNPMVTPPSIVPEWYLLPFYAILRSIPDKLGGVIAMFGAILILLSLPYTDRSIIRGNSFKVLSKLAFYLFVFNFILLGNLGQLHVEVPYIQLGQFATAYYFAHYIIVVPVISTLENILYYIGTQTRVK
Chain of Cytochrome b (Candida albicans (strain SC5314 / ATCC MYA-2876) (Yeast)), P0C8L0 [G37D] (P0C8L0 whole entry G37D): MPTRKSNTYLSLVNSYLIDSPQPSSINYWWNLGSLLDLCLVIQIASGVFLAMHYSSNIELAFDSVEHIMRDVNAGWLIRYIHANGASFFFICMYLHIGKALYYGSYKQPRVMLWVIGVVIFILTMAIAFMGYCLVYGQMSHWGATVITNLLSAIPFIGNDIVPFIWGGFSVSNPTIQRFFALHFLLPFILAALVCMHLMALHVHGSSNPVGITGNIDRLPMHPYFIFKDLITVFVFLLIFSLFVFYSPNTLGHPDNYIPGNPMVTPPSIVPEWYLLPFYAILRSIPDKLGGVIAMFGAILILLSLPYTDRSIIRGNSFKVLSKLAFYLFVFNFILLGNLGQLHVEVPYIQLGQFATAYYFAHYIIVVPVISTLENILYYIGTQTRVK
Chain of Cytochrome b (Candida albicans (strain SC5314 / ATCC MYA-2876) (Yeast)), P0C8L0 [G37C] (P0C8L0 whole entry G37C): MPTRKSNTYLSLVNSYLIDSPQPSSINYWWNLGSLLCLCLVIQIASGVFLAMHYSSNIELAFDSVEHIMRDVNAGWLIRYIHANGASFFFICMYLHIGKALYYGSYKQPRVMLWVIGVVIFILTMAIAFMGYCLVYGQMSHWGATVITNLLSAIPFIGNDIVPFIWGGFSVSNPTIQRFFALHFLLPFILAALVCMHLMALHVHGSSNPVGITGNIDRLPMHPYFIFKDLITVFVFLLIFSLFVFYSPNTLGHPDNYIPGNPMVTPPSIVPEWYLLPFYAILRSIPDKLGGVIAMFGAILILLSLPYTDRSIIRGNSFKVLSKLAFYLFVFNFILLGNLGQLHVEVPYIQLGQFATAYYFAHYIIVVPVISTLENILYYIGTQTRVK
Chain of Cytochrome b (Candida albicans (strain SC5314 / ATCC MYA-2876) (Yeast)), P0C8L0 [Q22E] (P0C8L0 whole entry Q22E): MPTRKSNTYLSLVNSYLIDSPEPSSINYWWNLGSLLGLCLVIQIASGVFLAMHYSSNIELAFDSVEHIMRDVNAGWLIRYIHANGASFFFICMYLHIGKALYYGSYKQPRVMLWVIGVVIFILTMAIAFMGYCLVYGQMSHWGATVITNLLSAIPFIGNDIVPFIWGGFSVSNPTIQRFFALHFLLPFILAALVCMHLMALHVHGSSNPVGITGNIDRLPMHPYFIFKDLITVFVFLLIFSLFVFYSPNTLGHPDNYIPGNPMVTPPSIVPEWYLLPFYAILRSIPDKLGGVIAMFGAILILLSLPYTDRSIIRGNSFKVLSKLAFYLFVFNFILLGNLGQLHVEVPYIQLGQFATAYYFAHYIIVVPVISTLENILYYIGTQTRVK
Chain of Cytochrome b (Saccharomyces cerevisiae (strain ATCC 204508 / S288c) (Baker's yeast)), P00163 [Q22E] (P00163 whole entry Q22E): as the sequence (P00163 whole entry S20T) above, with T20S, Q22E counted along it
Chain of Cytochrome b (Candida albicans (strain SC5314 / ATCC MYA-2876) (Yeast)), P0C8L0 [S20I] (P0C8L0 whole entry S20I): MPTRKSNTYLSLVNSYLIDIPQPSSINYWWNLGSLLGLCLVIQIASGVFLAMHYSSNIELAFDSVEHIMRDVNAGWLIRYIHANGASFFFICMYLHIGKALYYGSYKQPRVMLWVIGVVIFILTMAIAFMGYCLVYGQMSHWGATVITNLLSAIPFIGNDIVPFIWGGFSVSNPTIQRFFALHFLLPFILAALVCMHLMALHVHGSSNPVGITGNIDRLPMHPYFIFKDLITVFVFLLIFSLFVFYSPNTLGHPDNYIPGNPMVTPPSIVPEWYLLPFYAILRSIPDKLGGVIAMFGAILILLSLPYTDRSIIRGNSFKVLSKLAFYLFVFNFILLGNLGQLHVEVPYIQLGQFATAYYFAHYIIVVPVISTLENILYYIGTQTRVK
Chain of Cytochrome b (Saccharomyces cerevisiae (strain ATCC 204508 / S288c) (Baker's yeast)), P00163 [G37S] (P00163 whole entry G37S): as the sequence (P00163 whole entry S20T) above, with T20S, G37S counted along it
Chain of Cytochrome b (Saccharomyces cerevisiae (strain ATCC 204508 / S288c) (Baker's yeast)), P00163 [S20L] (P00163 whole entry S20L): as the sequence (P00163 whole entry S20T) above, with T20L counted along it
Chain of Cytochrome b (Saccharomyces cerevisiae (strain ATCC 204508 / S288c) (Baker's yeast)), P00163 [Q22T] (P00163 whole entry Q22T): as the sequence (P00163 whole entry S20T) above, with T20S, Q22T counted along it
Chain of Cytochrome b (Saccharomyces cerevisiae (strain ATCC 204508 / S288c) (Baker's yeast)), P00163 [L198F] (P00163 whole entry L198F): as the sequence (P00163 whole entry S20T) above, with T20S, L198F counted along it

Molecule `C/C=C/[C@H]1C(c2noc3c(-c4ccc(O)cc4)c[nH]c(=O)c23)C=C(C)[C@H]2CC[C@H](C)C[C@@H]21` (single isomer, unassigned) came in with a minimum inhibitory concentration (MIC) with Candida albicans [1] of more than 10 µg/mL.

In the assay on Candida albicans [1], `C/C=C/[C@@H]1[C@H]2C[C@@H](C)CC[C@@H]2C(C)=C[C@H]1/C1=N/NCCOCC12C(=O)NC=C(c1ccc(O)cc1)C2=O` (some centres not stated) gave an MIC of more than 10 µg/mL.

Regarding `OC(Cn1cncn1)(Cn1cncn1)c1ccc(F)cc1F`, the outcome (in [2]; in the assay with Candida tropicalis; with Candida albicans [1]; with Clavispora lusitaniae; in the assay on Candida albicans [3]; with Pichia kudriavzevii) was Active. Moreover, the result (in the assay with Nakaseomyces glabratus [4]; in the assay on Cryptococcus neoformans [5]; in the assay on Cryptococcus neoformans [6]; with Nakaseomyces glabratus [7]; with Candida albicans [8]; in assay [9]) was Active. The outcome in the assay with Candida parapsilosis was Active.

For `C[C@@H]1[C@H](O)[C@@H](C)/C=C/C=C/C=C/C=C/C=C/C=C/C=C/[C@H](O[C@@H]2O[C@H](C)[C@@H](O)[C@H](N)[C@@H]2O)C[C@@H]2O[C@](O)(C[C@@H](O)C[C@@H](O)[C@H](O)CC[C@@H](O)C[C@@H](O)CC(=O)O[C@H]1C)C[C@H](O)[C@H]2C(=O)O`, the outcome (in assay [2]; in the assay on Candida tropicalis; in the assay with Candida albicans [1]; in the assay with Clavispora lusitaniae; with Candida albicans [3]; in the assay with Pichia kudriavzevii) was Active. The outcome (in the assay on Nakaseomyces glabratus [4]; in the assay with Cryptococcus neoformans [5]; in the assay with Cryptococcus neoformans [6]; in the assay with Nakaseomyces glabratus [7]; with Candida albicans [8]; in assay [9]) was Active. Further, in the assay on Candida parapsilosis, the outcome was Active.

On to `C/C=C/[C@@H]1[C@H]2C[C@@H](C)CC[C@@H]2C(C)=C[C@H]1/C(=N\O)c1c(O)c(-c2ccc(O)cc2)c[nH]c1=O`, for which, in the assay on Candida albicans [1], the minimal inhibitory concentration (MIC) was more than 10 µg/mL.

As to `CC[C@H](C)C[C@H](C)CCCCCCCCC(=O)N[C@H]1C[C@@H](O)[C@@H](NCCN)NC(=O)[C@@H]2[C@@H](O)CCN2C(=O)[C@H]([C@H](O)CCN)NC(=O)[C@H]([C@H](O)[C@@H](O)c2ccc(O)cc2)NC(=O)[C@@H]2C[C@@H](O)CN2C(=O)[C@H]([C@@H](C)O)NC1=O`, the outcome (in [2]; in the assay with Candida tropicalis; in the assay with Candida albicans [1]; with Clavispora lusitaniae; in the assay on Candida albicans [3]; with Pichia kudriavzevii) was Active. Moreover, the result (in the assay with Nakaseomyces glabratus [4]; in the assay with Cryptococcus neoformans [5]; with Cryptococcus neoformans [6]; with Nakaseomyces glabratus [7]; in the assay with Candida albicans [8]; in [9]) was Active. In the assay on Candida parapsilosis, the result was Active.

With `CO/C(=C/C(N)=O)[C@H](C)[C@H](/C=C/c1csc(-c2csc([C@@H](C)/C=C/C=C/C(C)C)n2)n1)OC`, the inhibition result in [10], in assay [11], in [12], in [13], in assay [14] and in assay [15] was “Active” each time. The inhibition result in [16], in assay [17], in assay [18], in [19], in [20] and in assay [21] was “Active” throughout.

In the assay on Candida albicans [1], `C/C=C/[C@H]1C(c2n[nH]c3c(-c4ccc(O)cc4)c[nH]c(=O)c23)C=C(C)[C@H]2CC[C@H](C)C[C@@H]21` (single isomer, unassigned) came in with a minimal inhibitory concentration (MIC) of 0.25 µg/mL (≈ 0.582 µM). The molecule also returned an IC50 in assay [22] of 3 ng/mL (≈ 0.00698 µM). Also, the Ratio in assay [23] is 10.
